Data: PMC10088252
Where two headings read alike, the source gives them in different places.

O=C(Nc1ccc(Oc2ccnc3c2CCN3)c(F)c1)c1c[nH]cc(-c2ccc(F)cc2)c1=O
0 n (%): TRAE Accessory nerve disorder, grade 3-4 (300 mg QD (n=12)) | TRAE Activated partial thromboplastin time prolonged, grade 3-4 (300 mg QD (n=12)) | TRAE Anaemia, any grade (300 mg QD (n=12)) | TRAE Anaemia, grade 3-4 (300 mg QD (n=12)) | TRAE Anaesthesia oral, any grade (300 mg QD (n=12)) | TRAE Anaesthesia oral, grade 3-4 (300 mg QD (n=12)) | TRAE Arrhythmia, any grade (300 mg QD (n=12)) | TRAE Arrhythmia, grade 3-4 (300 mg QD (n=12)) | TRAE Arthralgia, any grade (300 mg QD (n=12)) | TRAE Arthralgia, grade 3-4 (300 mg QD (n=12)) | TRAE Asthenia, any grade (300 mg QD (n=12)) | TRAE Asthenia, grade 3-4 (300 mg QD (n=12)) | TRAE Blister, any grade (300 mg QD (n=12)) | TRAE Blister, grade 3-4 (300 mg QD (n=12)) | TRAE Chest discomfort, grade 3-4 (300 mg QD (n=12)) | TRAE Chronic kidney disease, any grade (300 mg QD (n=12)) | TRAE Chronic kidney disease, grade 3-4 (300 mg QD (n=12)) | TRAE Constipation, grade 3-4 (300 mg QD (n=12)) | TRAE Cough, any grade (300 mg QD (n=12)) | TRAE Cough, grade 3-4 (300 mg QD (n=12)) | TRAE Decreased Ccr, grade 3-4 (300 mg QD (n=12)) | TRAE Decreased appetite, grade 3-4 (300 mg QD (n=12)) | TRAE Diarrhoea, grade 3-4 (300 mg QD (n=12)) | TRAE Dizziness, grade 3-4 (300 mg QD (n=12)) | TRAE Dry mouth, grade 3-4 (300 mg QD (n=12)) | TRAE Dysgeusia, grade 3-4 (300 mg QD (n=12)) | TRAE Dyskinesia, any grade (300 mg QD (n=12)) | TRAE Dyskinesia, grade 3-4 (300 mg QD (n=12)) | TRAE Dysphonia, any grade (300 mg QD (n=12)) | TRAE Dysphonia, grade 3-4 (300 mg QD (n=12)) | TRAE Dyspnoea, any grade (300 mg QD (n=12)) | TRAE Dyspnoea, grade 3-4 (300 mg QD (n=12)) | TRAE Electrocardiogram QT prolonged, grade 3-4 (300 mg QD (n=12)) | TRAE Elevated ALT, grade 3-4 (300 mg QD (n=12)) | TRAE Elevated AST, grade 3-4 (300 mg QD (n=12)) | TRAE Elevated D dimer, any grade (300 mg QD (n=12)) | TRAE Elevated D dimer, grade 3-4 (300 mg QD (n=12)) | TRAE Elevated GGT, any grade (300 mg QD (n=12)) | TRAE Elevated GGT, grade 3-4 (300 mg QD (n=12)) | TRAE Elevated LDH, any grade (300 mg QD (n=12)) | TRAE Elevated LDH, grade 3-4 (300 mg QD (n=12)) | TRAE Elevated alpha-HBDH, any grade (300 mg QD (n=12)) | TRAE Elevated alpha-HBDH, grade 3-4 (300 mg QD (n=12)) | TRAE Elevated bilirubin, any grade (300 mg QD (n=12)) | TRAE Elevated bilirubin, grade 3-4 (300 mg QD (n=12)) | TRAE Elevated blood creatinine, grade 3-4 (300 mg QD (n=12)) | TRAE Elevated creatine phosphokinase, any grade (300 mg QD (n=12)) | TRAE Elevated creatine phosphokinase, grade 3-4 (300 mg QD (n=12)) | TRAE Elevated serum urea, grade 3-4 (300 mg QD (n=12)) | TRAE Elevated troponin, any grade (300 mg QD (n=12)) | TRAE Elevated troponin, grade 3-4 (300 mg QD (n=12)) | TRAE Genital rash, any grade (300 mg QD (n=12)) | TRAE Genital rash, grade 3-4 (300 mg QD (n=12)) | TRAE Haematuria, any grade (300 mg QD (n=12)) | TRAE Haematuria, grade 3-4 (300 mg QD (n=12)) | TRAE Headache, grade 3-4 (300 mg QD (n=12)) | TRAE Hyperhidrosis, any grade (300 mg QD (n=12)) | TRAE Hyperhidrosis, grade 3-4 (300 mg QD (n=12)) | TRAE Hyperlipidaemia, any grade (300 mg QD (n=12)) | TRAE Hyperlipidaemia, grade 3-4 (300 mg QD (n=12)) | TRAE Hypertension, grade 3-4 (300 mg QD (n=12)) | TRAE Hypoaesthesia oral, any grade (300 mg QD (n=12)) | TRAE Hypoaesthesia oral, grade 3-4 (300 mg QD (n=12)) | TRAE Hypocalcaemia, any grade (300 mg QD (n=12)) | TRAE Hypocalcaemia, grade 3-4 (300 mg QD (n=12)) | TRAE Hypotension, grade 3-4 (300 mg QD (n=12)) | TRAE Insomnia, grade 3-4 (300 mg QD (n=12)) | TRAE Leukopenia, any grade (300 mg QD (n=12)) | TRAE Leukopenia, grade 3-4 (300 mg QD (n=12)) | TRAE Nausea, grade 3-4 (300 mg QD (n=12)) | TRAE Neuritis, any grade (300 mg QD (n=12)) | TRAE Neuritis, grade 3-4 (300 mg QD (n=12)) | TRAE Occult blood, any grade (300 mg QD (n=12)) | TRAE Occult blood, grade 3-4 (300 mg QD (n=12)) | TRAE Oedema peripheral, any grade (300 mg QD (n=12)) | TRAE Oedema peripheral, grade 3-4 (300 mg QD (n=12)) | TRAE Onycholysis, any grade (300 mg QD (n=12)) | TRAE Onycholysis, grade 3-4 (300 mg QD (n=12)) | TRAE Oropharyngeal pain, any grade (300 mg QD (n=12)) | TRAE Oropharyngeal pain, grade 3-4 (300 mg QD (n=12)) | TRAE PPE, grade 3-4 (300 mg QD (n=12)) | TRAE Paraesthesia, any grade (300 mg QD (n=12)) | TRAE Paraesthesia, grade 3-4 (300 mg QD (n=12)) | TRAE Proteinuria, any grade (300 mg QD (n=12)) | TRAE Proteinuria, grade 3-4 (300 mg QD (n=12)) | TRAE Pruritus, any grade (300 mg QD (n=12)) | TRAE Pruritus, grade 3-4 (300 mg QD (n=12)) | TRAE Rash maculo-papular, grade 3-4 (300 mg QD (n=12)) | TRAE Sinus tachycardia, any grade (300 mg QD (n=12)) | TRAE Sinus tachycardia, grade 3-4 (300 mg QD (n=12)) | TRAE Skin fissures, any grade (300 mg QD (n=12)) | TRAE Skin fissures, grade 3-4 (300 mg QD (n=12)) | TRAE Supraventricular extrasystoles, any grade (300 mg QD (n=12)) | TRAE Supraventricular extrasystoles, grade 3-4 (300 mg QD (n=12)) | TRAE Thrombocytopenia, any grade (300 mg QD (n=12)) | TRAE Thrombocytopenia, grade 3-4 (300 mg QD (n=12)) | TRAE Upper respiratory tract infection, grade 3-4 (300 mg QD (n=12)) | TRAE Urinary retention, any grade (300 mg QD (n=12)) | TRAE Urinary retention, grade 3-4 (300 mg QD (n=12)) | TRAE Urinary tract infection, any grade (300 mg QD (n=12)) | TRAE Urinary tract infection, grade 3-4 (300 mg QD (n=12)) | TRAE Ventricular arrhythmia, grade 3-4 (300 mg QD (n=12)) | TRAE Ventricular extrasystoles, grade 3-4 (300 mg QD (n=12)) | TRAE Vomiting, any grade (300 mg QD (n=12)) | TRAE Vomiting, grade 3-4 (300 mg QD (n=12)) | TRAE Weight loss, any grade (300 mg QD (n=12)) | TRAE Weight loss, grade 3-4 (300 mg QD (n=12)) | TRAE Accessory nerve disorder, any grade (400 mg BID (n=4)) | TRAE Accessory nerve disorder, grade 3-4 (400 mg BID (n=4)) | TRAE Activated partial thromboplastin time prolonged, any grade (400 mg BID (n=4)) | TRAE Activated partial thromboplastin time prolonged, grade 3-4 (400 mg BID (n=4)) | TRAE Anaemia, any grade (400 mg BID (n=4)) | TRAE Anaemia, grade 3-4 (400 mg BID (n=4)) | TRAE Anaesthesia oral, any grade (400 mg BID (n=4)) | TRAE Anaesthesia oral, grade 3-4 (400 mg BID (n=4)) | TRAE Arrhythmia, any grade (400 mg BID (n=4)) | TRAE Arrhythmia, grade 3-4 (400 mg BID (n=4)) | TRAE Arthralgia, any grade (400 mg BID (n=4)) | TRAE Arthralgia, grade 3-4 (400 mg BID (n=4)) | TRAE Asthenia, any grade (400 mg BID (n=4)) | TRAE Asthenia, grade 3-4 (400 mg BID (n=4)) | TRAE Blister, any grade (400 mg BID (n=4)) | TRAE Blister, grade 3-4 (400 mg BID (n=4)) | TRAE Chest discomfort, any grade (400 mg BID (n=4)) | TRAE Chest discomfort, grade 3-4 (400 mg BID (n=4)) | TRAE Chronic kidney disease, any grade (400 mg BID (n=4)) | TRAE Chronic kidney disease, grade 3-4 (400 mg BID (n=4)) | TRAE Constipation, any grade (400 mg BID (n=4)) | TRAE Constipation, grade 3-4 (400 mg BID (n=4)) | TRAE Cough, any grade (400 mg BID (n=4)) | TRAE Cough, grade 3-4 (400 mg BID (n=4)) | TRAE Decreased Ccr, any grade (400 mg BID (n=4)) | TRAE Decreased Ccr, grade 3-4 (400 mg BID (n=4)) | TRAE Decreased appetite, any grade (400 mg BID (n=4)) | TRAE Decreased appetite, grade 3-4 (400 mg BID (n=4)) | TRAE Diarrhoea, any grade (400 mg BID (n=4)) | TRAE Diarrhoea, grade 3-4 (400 mg BID (n=4)) | TRAE Dizziness, any grade (400 mg BID (n=4)) | TRAE Dizziness, grade 3-4 (400 mg BID (n=4)) | TRAE Dry mouth, any grade (400 mg BID (n=4)) | TRAE Dry mouth, grade 3-4 (400 mg BID (n=4)) | TRAE Dysgeusia, any grade (400 mg BID (n=4)) | TRAE Dysgeusia, grade 3-4 (400 mg BID (n=4))
1 (8.3) n (%): TRAE Accessory nerve disorder, any grade (300 mg QD (n=12)) | TRAE Activated partial thromboplastin time prolonged, any grade (300 mg QD (n=12)) | TRAE Chest discomfort, any grade (300 mg QD (n=12)) | TRAE Diarrhoea, any grade (300 mg QD (n=12)) | TRAE Dizziness, any grade (300 mg QD (n=12)) | TRAE Dry mouth, any grade (300 mg QD (n=12)) | TRAE Dysgeusia, any grade (300 mg QD (n=12)) | TRAE Electrocardiogram QT prolonged, any grade (300 mg QD (n=12)) | TRAE Elevated serum urea, any grade (300 mg QD (n=12)) | TRAE Headache, any grade (300 mg QD (n=12)) | TRAE Hypertension, any grade (300 mg QD (n=12)) | TRAE Hypotension, any grade (300 mg QD (n=12)) | TRAE Insomnia, any grade (300 mg QD (n=12)) | TRAE PPE, any grade (300 mg QD (n=12)) | TRAE Rash maculo-papular, any grade (300 mg QD (n=12)) | TRAE Upper respiratory tract infection, any grade (300 mg QD (n=12)) | TRAE Ventricular arrhythmia, any grade (300 mg QD (n=12)) | TRAE Ventricular extrasystoles, any grade (300 mg QD (n=12))
3 (25.0) n (%): TRAE Elevated ALT, any grade (300 mg QD (n=12)) | TRAE Elevated blood creatinine, any grade (300 mg QD (n=12)) | TRAE Nausea, any grade (300 mg QD (n=12))
2 (16.7) n (%): TRAE Constipation, any grade (300 mg QD (n=12)) | TRAE Decreased Ccr, any grade (300 mg QD (n=12)) | TRAE Decreased appetite, any grade (300 mg QD (n=12)) | TRAE Elevated AST, any grade (300 mg QD (n=12))
